Source: PubChem BioAssay (NCI)
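Five concentrations, 48 hours, 96-well plates. TGI is the concentration that stops growth completely.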

Tests used:
Assay in all cases: NCI-60 cell line screen, 48 h
CCRF-CEM leukemia = test system: CCRF-CEM leukemia
HCT-116 colon = test system: HCT-116 colon
HL-60(TB) leukemia = test system: HL-60(TB) leukemia
HT29 colon = test system: HT29 colon
IGROV1 ovarian = test system: IGROV1 ovarian
LOX IMVI melanoma = test system: LOX IMVI melanoma
MCF7 breast = test system: MCF7 breast
MDA-MB-231 breast = test system: MDA-MB-231 breast
MDA-MB-435 = test system: MDA-MB-435
MOLT-4 leukemia = test system: MOLT-4 leukemia
NCI-H23 lung = test system: NCI-H23 lung
NCI-H460 lung = test system: NCI-H460 lung
OVCAR-5 ovarian = test system: OVCAR-5 ovarian
PC-3 prostate = test system: PC-3 prostate
RPMI-8226 leukemia = test system: RPMI-8226 leukemia
SR leukemia = test system: SR leukemia
UO-31 renal = test system: UO-31 renal

| Compound | TGI (CCRF-CEM leukemia) [µM] | TGI (HCT-116 colon) [µM] | TGI (HL-60(TB) leukemia) [µM] | TGI (HT29 colon) [µM] | TGI (IGROV1 ovarian) [µM] | TGI (LOX IMVI melanoma) [µM] | TGI (MCF7 breast) [µM] | TGI (MDA-MB-231 breast) [µM] | TGI (MDA-MB-435) [µM] | TGI (MOLT-4 leukemia) [µM] | TGI (NCI-H23 lung) [µM] | TGI (NCI-H460 lung) [µM] | TGI (OVCAR-5 ovarian) [µM] | TGI (PC-3 prostate) [µM] | TGI (RPMI-8226 leukemia) [µM] | TGI (SR leukemia) [µM] | TGI (UO-31 renal) [µM] |
| --- | --- | --- | --- | --- | --- | --- | --- | --- | --- | --- | --- | --- | --- | --- | --- | --- | --- |
| COC(=O)C1(OC(=O)Sc2ccccc2)CCN(C)CC1 | 19.7 | 53.6 | 24 | 58 | 18.7 | 28.4 | > 100 | 59 | 36.3 | > 39.8 | 50.2 | 58.1 | > 69.6 | > 83.5 | 35 | 35.7 | 20.8 |
| CC(C)C1=C(Cc2ccccc2)C(=O)O/C1=C\c1cc(Cl)c(O)c(Cl)c1 | 41.5 | 34.8 | 41.7 | 32.2 | 44.1 | 34.8 | 83.4 | 33.8 | 35.4 | 60.7 | 32.9 | 41.2 | 43.7 | 31.1 | 65.6 | 66.8 | 27.1 |
| Cc1ccc(-c2cc(-c3ccc(Cl)cc3)nc(/N=C3\C(=O)N(CN4CCOCC4)c4ccc(Cl)cc43)n2)cc1 | > 100 | 40.9 | 41.4 | 43.6 | 33.1 | > 100 | 79.2 | > 100 | 65.9 | 57 | 57.6 | 81.2 | > 100 | > 100 | > 100 | > 100 | 60.3 |
| Cc1cc(C)nc(NS(=O)(=O)c2ccc(NNC(=O)c3cccc4c(=O)c5ccccc5[nH]c34)cc2)n1 | > 100 | > 100 | > 100 | > 100 | > 100 | > 100 | > 100 | > 100 | > 100 | > 100 | > 100 | > 100 | > 100 | > 100 | > 100 | > 100 | > 100 |
| CCOC(=O)c1cc(C2(O)CCN(CC(C)CC)C2=O)c(-c2cc(C)no2)[nH]1 (configuration not stated) | > 100 | > 100 | > 100 | > 100 | > 100 | > 100 | > 100 | > 100 | > 100 | > 100 | > 100 | > 100 | > 100 | > 100 | > 100 | > 100 | > 100 |
| CN1CCN(CN2C(=O)C3C4C=CC(C3C2=O)C2C(=O)N(CN3CCN(C)CC3)C(=O)C42)CC1 (configuration not stated) | > 100 | > 62.1 | 61.6 | 49.3 | > 100 | > 63 | 72.8 | > 100 | > 100 | 97.1 | > 78.4 | > 93.6 | > 100 | > 100 | 51.4 | > 100 | > 100 |
| O=S(=O)(O)c1ccc(N=Nc2ccc(N=Nc3c(O)ccc4ccccc34)cc2)cc1 | > 100 | > 100 | > 100 | > 100 | > 100 | > 100 | > 100 | > 100 | > 100 | > 100 | > 100 | > 100 | > 100 | > 100 | > 100 | > 100 | > 100 |
| COc1ccc(OC)c(C2Cc3cnc4nc(N)nc(N)c4c3C2)c1 (configuration not stated) | > 100 | 55.1 | 40 | > 100 | 50.2 | 47.6 | > 100 | 52.6 | 65 | 87.5 | > 100 | 73.6 | 97.1 | 69.7 | 94.7 | 44.9 | > 100 |
| S=c1[nH]n2c(COc3cccc(OCc4nnc5sc(=S)[nH]n45)c3)nnc2s1 | > 100 | > 100 | 72.1 | > 100 | > 100 | > 100 | > 100 | > 100 | > 100 | > 100 | > 100 | > 100 | > 100 | > 100 | > 100 | > 100 | > 100 |
| C[C@@]12CCC3C1C=C1C(=O)c4cc(O)ccc4C(=O)[C@]1(O2)[C@@]3(C)C=O | 4.02 | 12.8 | 3.88 | 20.9 | 19.6 | 11.2 | 11.6 | 19.3 | 11.3 | 12.9 | 13.5 | 10.6 | 26.3 | 19.5 | 9.01 | 5.89 | 13.7 |
| COc1cc(C2SCC(=O)N2c2ccc(Cl)c(Cl)c2)cc(OC)c1OC (configuration not stated) | 51.3 | > 100 | > 73.9 | > 100 | > 100 | > 100 | > 100 | > 100 | 34 | > 67 | > 100 | > 100 | 98.3 | > 100 | > 78.6 | 83.8 | > 100 |
| O=C(O)c1cccnc1 | > 100 | > 100 | > 100 | > 100 | > 100 | > 100 | > 100 | > 100 | > 100 | > 100 | > 100 | > 100 | > 100 | > 100 | > 100 | > 100 | > 100 |
| O=C1NN=C2C=C(c3ccc(Cl)cc3)CC(c3cccc(Cl)c3)C12 (configuration not stated) | 71.7 | 41 | 49.1 | 51.4 | 59.1 | 33.4 | 48.5 | 42.7 | 40.2 | 52.9 | > 100 | 47.2 | 75.7 | > 100 | 57 | 41.7 | 66.4 |
| CN(C)/C=N/n1c2ccccc2c2ccccc21 | > 100 | > 100 | > 100 | > 100 | > 100 | > 100 | > 100 | > 100 | > 100 | > 100 | > 100 | > 100 | > 100 | > 100 | > 100 | > 100 | > 100 |
| N#C/C(N)=C(\C#N)NC=NCc1ccccc1 | > 100 | > 100 | > 100 | > 100 | > 100 | > 100 | > 100 | > 100 | > 100 | > 100 | > 100 | > 100 | > 100 | > 100 | > 100 | > 100 | > 100 |
| CCO/C=N/NC(=O)CSc1nc2ccc(I)cc2c(=O)n1Cc1ccccc1 | > 100 | > 100 | > 100 | > 100 | > 100 | > 100 | > 100 | > 100 | > 100 | > 100 | > 100 | > 100 | > 100 | > 100 | > 100 | > 100 | > 100 |
| COc1ccc(C(OC(C)=O)C2C(=C(C#N)C#N)c3ccccc3C2=C(C#N)C#N)cc1 (configuration not stated) | 62.6 | > 100 | 41.9 | 95.1 | > 100 | > 100 | > 100 | > 100 | > 100 | 99.8 | 85.7 | > 100 | 38.3 | 54.3 | 60.4 | 41 | 75.1 |
| CCOC(=O)c1ccc(C(=O)/C(C#N)=C2\CCCN2C)[nH]1 | > 100 | > 100 | > 100 | > 100 | > 100 | > 100 | > 100 | > 100 | > 100 | > 100 | > 100 | > 100 | > 100 | > 100 | > 100 | > 100 | > 100 |
| C[C@H]1C2Cc3cc(N)ccc3[C@@]1(C)CCN2CCc1ccccc1 | > 100 | > 100 | 87.7 | > 100 | > 100 | 41.2 | 94.1 | > 100 | > 100 | > 100 | > 100 | > 100 | > 100 | 49.9 | > 100 | > 100 | > 100 |
| COc1ccc(CN(Cc2ccc(OC)cc2)C(=O)CC2(O)C=CCC2)cc1 (configuration not stated) | > 100 | > 100 | > 100 | > 100 | > 100 | > 100 | > 100 | > 100 | > 100 | > 100 | > 100 | > 100 | > 100 | > 100 | > 100 | > 100 | > 100 |
| CC(=O)Nc1ccc(-c2nc3cc(Cl)ccc3o2)cc1 | > 50 | > 50 | > 50 | > 50 | > 50 | > 50 | > 50 | > 50 | > 50 | > 50 | > 50 | > 50 | > 50 | > 50 | > 50 | > 50 | > 50 |
